Measurements reported in ChEMBL document CHEMBL1201862, “PubChem BioAssay data set” (2004).
Calls of active or inactive are those of the source.

How the values were obtained:
[1] = target: T1, Short transient receptor potential channel 4 (Mus musculus, UniProt Q9QUQ5); test: calcium entry via TRPC4 opening agents – cell-based, HEK293 TRPC4/mu-opioid, Fluo-4 calcium, dose response (AID 434937); format: functional
T1 sequence (Q9QUQ5 whole entry): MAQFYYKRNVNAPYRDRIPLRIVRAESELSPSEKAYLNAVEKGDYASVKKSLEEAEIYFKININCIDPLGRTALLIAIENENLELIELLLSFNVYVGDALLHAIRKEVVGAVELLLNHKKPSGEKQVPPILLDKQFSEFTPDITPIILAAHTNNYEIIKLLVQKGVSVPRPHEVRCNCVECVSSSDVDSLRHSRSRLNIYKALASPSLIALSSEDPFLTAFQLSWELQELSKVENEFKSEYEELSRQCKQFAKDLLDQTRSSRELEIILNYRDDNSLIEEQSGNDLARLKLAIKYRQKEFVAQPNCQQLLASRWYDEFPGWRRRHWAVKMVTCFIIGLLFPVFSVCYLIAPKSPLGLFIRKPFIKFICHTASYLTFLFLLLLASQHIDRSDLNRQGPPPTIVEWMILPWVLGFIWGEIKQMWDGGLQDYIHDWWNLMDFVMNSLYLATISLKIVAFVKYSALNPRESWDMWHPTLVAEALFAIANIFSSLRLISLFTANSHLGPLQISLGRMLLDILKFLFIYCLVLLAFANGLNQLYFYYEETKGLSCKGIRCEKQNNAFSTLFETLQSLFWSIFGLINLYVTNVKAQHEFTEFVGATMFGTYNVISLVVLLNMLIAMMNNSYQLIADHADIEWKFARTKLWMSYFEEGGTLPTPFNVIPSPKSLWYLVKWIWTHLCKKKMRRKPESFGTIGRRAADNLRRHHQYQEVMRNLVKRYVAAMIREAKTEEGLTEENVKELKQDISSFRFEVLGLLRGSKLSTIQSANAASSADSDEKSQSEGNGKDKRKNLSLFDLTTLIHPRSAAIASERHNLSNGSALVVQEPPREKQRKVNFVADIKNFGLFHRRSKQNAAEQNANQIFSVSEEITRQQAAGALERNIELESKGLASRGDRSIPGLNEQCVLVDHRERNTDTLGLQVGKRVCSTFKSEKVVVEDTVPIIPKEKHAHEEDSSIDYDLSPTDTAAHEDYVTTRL

[2] = OVCAR-3 cell viability loss – plate reader, dry powder samples, PAX8 inhibitor project, dose response (AID 743044); format: functional, cell-based
Paired box protein Pax-8 = Paired box protein Pax-8 (Homo sapiens, UniProt Q06710); test: PAX8 transcriptional activity inhibition in RMG-I – RMG-I cells, luciferase, cherry-pick, dose response (AID 687027); format: functional, cell-based;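 further: luciferase reporter driven by Pax8 target thyroperoxidase promoter measured by SteadyGlo luminescence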
[3] = intracellular Trypanosoma cruzi inhibitors in host cells – cell-based, plate reader, cherry-pick samples, set 3, dose response (AID 651818); format: functional;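 further: compounds incubated with infected cells for about four days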
Nonstructural protein 1 = Nonstructural protein 1 (Influenza A virus, UniProt Q194T2); format: functional, Influenza A virus (A/California/07/2009(H1N1))
[4] = target: T2, DNA repair protein RAD52 homolog (Homo sapiens, UniProt P43351); format: functional, biochemical
T2 sequence (P43351 whole entry): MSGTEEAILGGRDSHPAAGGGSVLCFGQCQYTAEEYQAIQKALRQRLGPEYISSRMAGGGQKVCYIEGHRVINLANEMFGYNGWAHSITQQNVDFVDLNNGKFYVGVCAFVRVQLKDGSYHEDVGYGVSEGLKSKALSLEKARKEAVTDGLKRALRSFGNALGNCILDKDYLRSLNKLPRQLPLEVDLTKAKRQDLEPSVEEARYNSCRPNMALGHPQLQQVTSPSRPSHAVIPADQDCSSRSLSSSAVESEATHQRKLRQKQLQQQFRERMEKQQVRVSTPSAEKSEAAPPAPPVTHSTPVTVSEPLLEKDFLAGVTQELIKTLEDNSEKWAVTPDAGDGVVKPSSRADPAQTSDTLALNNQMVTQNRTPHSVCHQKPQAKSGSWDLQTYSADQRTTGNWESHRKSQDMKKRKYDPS

[5] = Luminescence Cell-Based Dose Response HTS to Identify Inhibitors of 5'UTR Stem-Loop Driven Prion Protein mRNA Translation in H4 Neuroglioblastoma Cells. [Related pubchem assays: 1827 (Project Summary), 1813 (Primary HTS)]; format: functional
[6] = luciferase reporter signal suppression in cells – H4 neuroglioma cells, luminescence, dose response (AID 1990); format: functional, cell-based
[7] = alpha-synuclein stem-loop luciferase translation blockers – H4 neuroglioma cells, luminescence, confirmation (AID 1988); format: functional, cell-based
Cytochrome P450 3A4 = Cytochrome P450 3A4 (Homo sapiens, UniProt P08684); details: Potency;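 further: confirmatory qHTS run detecting inhibitors and substrates of CYP3A4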
[8] = target: Induced myeloid leukemia cell differentiation protein Mcl-1 (Homo sapiens, UniProt Q07820); format: functional
Cytochrome P450 2D6 = Cytochrome P450 2D6 (Homo sapiens, UniProt P10635);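 further: CYP2D6 member of a cytochrome P450 panel assay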
[9] = target: T3, Ubiquitin-conjugating enzyme E2 N (Homo sapiens, UniProt P61088); format: functional;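 further: Dose-response confirmation in a TR-FRET assay detecting UBC13-driven polyubiquitin chain formation, inhibition measured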
T3 sequence (P61088 whole entry): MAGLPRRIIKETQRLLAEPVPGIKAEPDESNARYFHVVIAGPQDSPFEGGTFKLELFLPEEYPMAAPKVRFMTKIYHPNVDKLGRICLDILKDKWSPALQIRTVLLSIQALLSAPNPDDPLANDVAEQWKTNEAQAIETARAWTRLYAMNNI

[10] = target: T4, Microphthalmia-associated transcription factor (Homo sapiens, UniProt O75030); test: reducers of TRPM1 reporter luminescence, concentration series – cell-based, SK-MEL-5, cherry-picked, set 3, MITF inhibitor project, dose response (AID 493073); format: functional;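 further: SK-MEL-5 melanoma cells with luciferase driven by the MITF target TRPM1 promoter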
T4 sequence (O75030 whole entry): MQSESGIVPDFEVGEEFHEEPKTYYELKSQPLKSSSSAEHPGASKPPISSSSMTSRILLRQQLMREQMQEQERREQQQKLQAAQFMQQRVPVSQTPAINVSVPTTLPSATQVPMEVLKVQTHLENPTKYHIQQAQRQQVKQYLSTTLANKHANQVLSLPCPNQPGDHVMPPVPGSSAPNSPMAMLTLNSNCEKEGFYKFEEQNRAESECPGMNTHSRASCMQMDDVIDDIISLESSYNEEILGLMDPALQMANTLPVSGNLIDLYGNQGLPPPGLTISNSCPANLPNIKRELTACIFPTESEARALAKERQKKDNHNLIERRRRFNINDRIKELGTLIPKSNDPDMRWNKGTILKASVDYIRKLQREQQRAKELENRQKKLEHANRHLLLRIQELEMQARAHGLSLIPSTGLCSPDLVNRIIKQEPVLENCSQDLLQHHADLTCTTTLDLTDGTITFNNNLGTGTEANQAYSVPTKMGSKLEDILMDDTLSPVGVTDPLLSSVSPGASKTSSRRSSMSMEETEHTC

[11] = target: Luciferin 4-monooxygenase (Photinus pyralis, UniProt P08659); test: inhibition of purified Photinus pyralis luciferase – biochemical, luminescence, dose response (AID 1891)
INS1 = test: INS-1E survival protection against cytokine death – cell-based, luminescence, retest, dose response (AID 449756); format: functional; details: Rattus norvegicus;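 further: cell death triggered by IL-1 beta plus TNF-alpha plus IFN-gamma mixture; protective hits raise ATP signal compared with cytokine alone wells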
[12] = Luminescence Cell-Based Dose Confirmation HTS to Identify Inhibitors of Platelet Dense Granule Release. [Related pubchem assays: 1663 (Primary HTS), 1678 (Summary of Project)]; format: functional
[13] = NIH3T3 cell viability loss – ATP luminescence, mouse fibroblasts, counter-screen, dose response (AID 2010); format: functional, cell-based;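 further: cells exposed to compound for about 90 hours before reading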
[14] = Trypanosoma cruzi growth suppression in host cells – NIH3T3 host cells, beta-gal luminescence, confirmation (AID 2044); format: functional, cell-based;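 further: intracellular parasites grown in NIH/3T3 mouse fibroblasts as host cells; luminescent beta-galactosidase reporter signal from transgenic T. cruzi replicating inside host cells; inhibitors lower the luminescence signal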
[15] = microbe, parasite or virus in culture; format: functional; details: Mycobacterium tuberculosis

Sequence of Nonstructural protein 1 (Q194T2 whole entry): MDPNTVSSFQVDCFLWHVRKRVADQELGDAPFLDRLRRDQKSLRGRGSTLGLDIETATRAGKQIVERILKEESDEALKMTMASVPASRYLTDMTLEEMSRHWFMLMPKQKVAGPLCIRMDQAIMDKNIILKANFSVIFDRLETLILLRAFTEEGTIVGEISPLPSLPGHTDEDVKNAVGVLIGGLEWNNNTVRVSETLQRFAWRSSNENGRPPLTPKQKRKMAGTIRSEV
Sequence of Cytochrome P450 3A4 (P08684 whole entry): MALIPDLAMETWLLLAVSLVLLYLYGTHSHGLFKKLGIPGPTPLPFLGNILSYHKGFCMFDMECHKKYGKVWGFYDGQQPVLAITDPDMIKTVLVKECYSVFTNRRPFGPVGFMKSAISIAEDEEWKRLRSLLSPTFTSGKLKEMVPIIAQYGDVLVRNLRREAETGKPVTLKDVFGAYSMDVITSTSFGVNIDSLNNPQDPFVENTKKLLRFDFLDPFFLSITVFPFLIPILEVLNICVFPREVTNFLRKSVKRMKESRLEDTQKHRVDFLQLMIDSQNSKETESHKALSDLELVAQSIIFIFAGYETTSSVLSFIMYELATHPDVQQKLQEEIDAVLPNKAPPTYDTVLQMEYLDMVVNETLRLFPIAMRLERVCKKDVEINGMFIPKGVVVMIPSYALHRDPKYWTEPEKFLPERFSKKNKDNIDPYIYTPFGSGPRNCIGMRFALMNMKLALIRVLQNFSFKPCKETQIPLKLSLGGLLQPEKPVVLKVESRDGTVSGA
Sequence of Cytochrome P450 2D6 (P10635 whole entry): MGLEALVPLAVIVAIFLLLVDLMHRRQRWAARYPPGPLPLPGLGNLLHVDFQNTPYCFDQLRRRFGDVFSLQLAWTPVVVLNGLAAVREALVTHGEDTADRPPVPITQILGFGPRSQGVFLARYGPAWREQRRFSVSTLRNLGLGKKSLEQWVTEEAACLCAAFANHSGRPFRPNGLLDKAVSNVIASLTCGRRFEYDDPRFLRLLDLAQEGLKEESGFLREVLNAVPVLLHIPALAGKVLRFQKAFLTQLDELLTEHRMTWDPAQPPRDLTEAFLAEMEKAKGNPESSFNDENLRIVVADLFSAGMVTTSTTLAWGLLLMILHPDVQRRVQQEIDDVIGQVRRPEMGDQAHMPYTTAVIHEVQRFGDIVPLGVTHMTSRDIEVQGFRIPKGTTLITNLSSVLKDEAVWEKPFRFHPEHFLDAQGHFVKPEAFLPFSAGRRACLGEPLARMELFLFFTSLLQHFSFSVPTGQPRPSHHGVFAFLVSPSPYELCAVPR
Sequence of Luciferin 4-monooxygenase (P08659 whole entry): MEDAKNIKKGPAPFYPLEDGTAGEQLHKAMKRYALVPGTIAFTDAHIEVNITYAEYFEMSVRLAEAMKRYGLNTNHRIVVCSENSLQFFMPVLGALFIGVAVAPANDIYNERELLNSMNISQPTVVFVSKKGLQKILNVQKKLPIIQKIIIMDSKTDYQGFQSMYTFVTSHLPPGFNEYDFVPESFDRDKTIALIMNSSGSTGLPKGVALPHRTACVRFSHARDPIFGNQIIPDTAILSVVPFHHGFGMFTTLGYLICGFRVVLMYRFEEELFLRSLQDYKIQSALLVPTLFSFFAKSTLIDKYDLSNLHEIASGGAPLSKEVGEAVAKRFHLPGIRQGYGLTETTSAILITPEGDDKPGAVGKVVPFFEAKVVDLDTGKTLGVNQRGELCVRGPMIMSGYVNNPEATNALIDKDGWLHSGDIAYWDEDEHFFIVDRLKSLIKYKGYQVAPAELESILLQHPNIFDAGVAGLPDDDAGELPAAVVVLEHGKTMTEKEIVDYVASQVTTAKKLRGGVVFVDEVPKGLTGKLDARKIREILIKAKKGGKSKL
Sequence of Paired box protein Pax-8 (Q06710 whole entry): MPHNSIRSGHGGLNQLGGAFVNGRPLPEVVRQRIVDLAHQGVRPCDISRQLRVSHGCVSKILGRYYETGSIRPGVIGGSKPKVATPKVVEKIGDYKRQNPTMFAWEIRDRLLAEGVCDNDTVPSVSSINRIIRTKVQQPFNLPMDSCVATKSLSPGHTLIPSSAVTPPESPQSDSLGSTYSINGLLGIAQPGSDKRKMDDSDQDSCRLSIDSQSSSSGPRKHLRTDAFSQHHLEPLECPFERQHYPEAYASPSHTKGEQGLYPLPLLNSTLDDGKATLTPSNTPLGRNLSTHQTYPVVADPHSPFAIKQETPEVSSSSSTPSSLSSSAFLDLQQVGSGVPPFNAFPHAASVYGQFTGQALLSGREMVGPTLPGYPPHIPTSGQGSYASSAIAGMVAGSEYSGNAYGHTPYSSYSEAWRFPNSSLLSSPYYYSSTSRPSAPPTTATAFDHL
Sequence of Induced myeloid leukemia cell differentiation protein Mcl-1 (Q07820 whole entry): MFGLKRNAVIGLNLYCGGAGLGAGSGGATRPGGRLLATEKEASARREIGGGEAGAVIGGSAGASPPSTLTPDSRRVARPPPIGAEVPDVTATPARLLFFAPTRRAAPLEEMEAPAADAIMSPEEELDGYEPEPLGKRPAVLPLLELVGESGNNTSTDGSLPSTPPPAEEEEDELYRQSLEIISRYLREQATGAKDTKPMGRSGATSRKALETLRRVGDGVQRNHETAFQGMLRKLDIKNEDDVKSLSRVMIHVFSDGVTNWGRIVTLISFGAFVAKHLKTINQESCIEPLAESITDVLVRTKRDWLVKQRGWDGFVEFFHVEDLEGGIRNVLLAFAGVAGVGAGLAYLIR

## CCN(CCCNS(=O)(=O)c1cc(-c2cc(C)no2)ccc1C)Cc1ccccc1
[1]
  EC50: 0.299 µM (active)

## COc1ccc(S(=O)(=O)Nc2ccc3c(c2)C(=O)N([C@H](C)CO)C[C@@H](C)[C@@H](CN(C)Cc2ccc(C(F)(F)F)cc2)OCCCC[C@H](C)O3)cc1
[2]
  AC50: 5.6 µM (active)
Paired box protein Pax-8
  AC50: 3.43 µM (active)

## C[C@@H]1CN([C@H](C)CO)C(=O)Cc2cc(NC(=O)Cc3cn(C)c4ccccc34)ccc2O[C@H]1CN(C)Cc1ccc(-c2ccccc2)cc1
[3]
  AC50: 4.23 µM (active)

## C[C@H](CO)N1C[C@H](C)[C@H](CN(C)C(=O)Nc2ccc(F)cc2)Oc2c(NC(=O)Nc3cccc4ccccc34)cccc2C1=O
[3]
  AC50: 1.79 µM (active)

## C[C@H](CO)N1C[C@H](C)[C@H](CN(C)C(=O)Nc2cccc3ccccc23)Oc2c(NC(=O)Nc3ccc(C(F)(F)F)cc3)cccc2C1=O
[3]
  AC50: 6.42 µM (active)

## COc1ccc2nc(NN=C(C)c3ccccn3)cc(C)c2c1
Nonstructural protein 1
  IC50: 7.94 µM (active)

## C[N+]1(CC(=O)NNc2c3ccccc3nc3ccccc23)CCOCC1
[4]
  AC50: 2.83 µM (active)

## O=C(CN1C(=O)C2CCCCC2C1=O)Nc1nc(-c2ccccn2)cs1 (stereo unspecified)
[5]
  EC50: 14.3 µM (active)
Nonstructural protein 1
  IC50: 16 µM (active)
[6]
  EC50: > 120 µM (not active)
[7]
  EC50: > 120 µM (not active)

## C[C@H]1CN([C@@H](C)CO)C(=O)c2cccc(NC(=O)c3nc4ccccc4s3)c2O[C@H]1CN(C)C(=O)Nc1ccc(C(F)(F)F)cc1
[3]
  AC50: 3.86 µM (active)

## CC(N)Cc1c[nH]c2cc3c(cc12)OCCO3 (stereo unspecified)
[1]
  EC50: 1.33 µM (active)

## O=[N+]([O-])c1ccc(N=Nc2ccc(O)c3ccccc23)cc1
Nonstructural protein 1
  IC50: 25.9 µM (active)

## C#Cc1cccc(C(=O)NC2CCCN(C3Cc4ccccc4C3)C2)c1 (stereo unspecified)
[1]
  EC50: 0.596 µM (active)

## C[C@@H]1CN([C@H](C)CO)C(=O)c2cccc(NC(=O)CCCCCC(=O)Nc3ccccc3N)c2O[C@@H]1CN(C)Cc1ccc(-c2ccccc2)cc1
[3]
  AC50: 4.22 µM (active)

## CC(CC(=O)c1ccc(F)cc1)N1CCN(c2ccccc2)CC1 (stereo unspecified)
[4]
  AC50: 34.3 µM (active)

## CCOc1ccccc1C1CC(c2ccc(Cl)cc2)Nc2nc(N)nn21 (stereo unspecified)
[1]
  EC50: 11.9 µM (active)

## COc1cccc(O)c1O [3-METHOXYCATECHOL]
Cytochrome P450 3A4
  AC50: 20 µM (inconclusive)

## Cc1ccc(NS(=O)(=O)c2cc([N+](=O)[O-])ccc2NNC(=S)Nc2cccc(Cl)c2)c(C)c1
Nonstructural protein 1
  IC50: 17 µM (active)
[8]
  IC50: 5.74 µM (not active)

## COc1ccc(CNn2c(C)nc3ccccc3c2=O)cc1
Cytochrome P450 2D6
  AC50: 25.1 µM (inconclusive)
[9]
  IC50: > 20 µM (inactive)

## CC(=O)OC1CCC2(C)C3=C(CCC2C1(C)C)[C@]1(C)CCC(C(C)CCC=C(C)C)[C@]1(C)CC3 (stereo partly specified)
Cytochrome P450 3A4
  AC50: 31.6 µM (inconclusive)

## NCCCC[C@@H]1NC(=O)c2cc([N+](=O)[O-])cc(F)c2NCCCC[C@@H](C(N)=O)NC(=O)[C@H](CCC(N)=O)NC1=O
[4]
  AC50: 8.88 µM (active)
[9]
  IC50: > 20 µM (inactive)

## C1CCCCCC(NCCN2CCNCC2)CCCCC1
[4]
  AC50: 23.1 µM (active)

## CC(CN1CCCC(C(N)=O)C1)c1ccccc1 (stereo unspecified)
[1]
  EC50: 1.19 µM (active)

## S=C=Nc1cccc(C2(N3CCCCC3)CCCCC2)c1 [METAPHIT METHANESULFONATE]
[10]
  AC50: 7.36 µM (active)

## COc1cccc(/C=N/Nc2ccnc(O)n2)c1O
[11]
  EC50: > 112 µM (not active)
INS1
  AC50: 0.67 µM (active)
Nonstructural protein 1
  IC50: 10.6 µM (active)
[12]
  EC50: 10.7 µM (active)

## CC1CN(C(=O)CCC(=O)NCCCN2CCC(Cc3ccccc3)CC2)c2cc(Cl)ccc2O1 (stereo unspecified)
[10]
  AC50: 16.2 µM (active)
[9]
  IC50: > 20 µM (inactive)

## Cc1cc2ccccc2n1CCNC(=O)C(C)Oc1ccccc1 (stereo unspecified)
[13]
  EC50: 13.8 µM (active)
[14]
  EC50: 0.705 µM (active)
Nonstructural protein 1
  IC50: 64.6 µM (active)

## COC(=O)C1=C(c2ccc(OCc3ccccc3)cc2)C[C@@H]2CC[C@H]1N2C(=O)NC1CCN(Cc2ccccc2)CC1
INS1
  AC50: 3.96 µM (active)
[15]
  CC50: 17.6 µM (active)
[9]
  IC50: > 20 µM (inactive)

## CCN1C(NCc2ccc(OC)cc2)=N[C@@H](CCc2ccccc2)[C@H](C(=O)NCc2ccc(OC)cc2)[C@H]1C
[9]
  IC50: > 20 µM (inactive)

## COc1ccc(CN(C)C[C@@H]2OCCCC[C@@H](C)Oc3ccc(NC(=O)Nc4ccc(C(F)(F)F)cc4)cc3C(=O)N([C@H](C)CO)C[C@@H]2C)cc1
[3]
  AC50: 2.48 µM (active)

## CC(=O)OC1CC2C(C)(C)C(O)C=C[C@@]2(C)C2CC[C@@]3(C)C(c4ccoc4)OC(=O)C4OC43[C@]12C (stereo partly specified)
Cytochrome P450 3A4
  AC50: 12.6 µM (inconclusive)

## CC(C)CC1(C(=O)NCc2ccccn2)C=CCN1C(=O)c1ccccc1 (stereo unspecified)
Cytochrome P450 3A4
  AC50: 15.8 µM (inconclusive)
